Measurements from US8952024B2, “Herbicidal pyrimidone derivatives” (E I du Pont de Nemours and Company, priority 2009, dated 2015).

What was measured:
Test in all cases: Test D pre-/postemergence plant response
Assay type in all cases: in vivo
[1] = system: purslane (common purslane, Portulaca oleracea)
From the text: (§1) Seeds of plant species selected from bermudagrass (Cynodon dactylon), Surinam grass (Brachiaria decumbens), large crabgrass (Digitaria sanguinalis), green foxtail (Setaria viridis), goosegrass (Eleusine indica), johnsongrass (Sorghum halepense), kochia (Kochia scoparia), morningglory (pitted morningglory, Ipomoea lacunosa), nutsedge (purple nutsedge, Cyperus rotundus), ragweed (common ragweed, Ambrosia elatior), black mustard (Brassica nigra), guineagrass (Panicum maximum), dallisgrass (Paspalum dilatatum), barnyardgrass (Echinochloa crus-galli), sandbur (southern sandbur, Cenchrus echinatus), sowthistle (common sowthistle, Sonchus oleraceous), prickly sida (Sida spinosa), Italian ryegrass (Lolium multiflorum), purslane (common purslane, Portulaca oleracea), signalgrass (broadleaf signalgrass, Brachiaria platyphylla), groundsel (common groundsel, Senecio vulgaris), chickweed (common chickweed, Stellaria media), dayflower (Virginia (VA) dayflower, Commelina virginica), bluegrass (annual bluegrass, Poa annua), naked crabgrass (Digitaria nuda), itchgrass (Rottboellia cochinchinensis), quackgrass (Elytrigia repens), field bindweed (Convolvulus arvensis), spanishneedles (Bidens bipinnata), mallow (common mallow, Malva sylvestris) and Russian thistle (Salsola kali), were planted into a blend of loam soil and sand and treated preemergence with test chemicals formulated in a non-phytotoxic solvent mixture which included a surfactant. At the same time, plants from these weed species were treated with postemergence applications of the test chemicals formulated in the same manner. Plants ranged in height from 2 to 18 cm (1- to 4-leaf stage) for postemergence treatments.
(§2) Treated plants and controls were maintained in a greenhouse for 14 to 21 days, after which time all species were visually evaluated and compared to controls. Plant response ratings, summarized in Table D, are based on a scale of 0 to 100 where 0 is no effect and 100 is complete control. A dash (-) response means no test result.

[2] = system: groundsel (common groundsel, Senecio vulgaris); conditions: Postemergence
From the text: as §1, §2

[3] = system: sowthistle (common sowthistle, Sonchus oleraceous)
From the text: as §1, §2

[4] = system: prickly sida (Sida spinosa)
From the text: as §1, §2

[5] = system: nutsedge (purple nutsedge, Cyperus rotundus)
From the text: as §1, §2

[6] = system: dayflower (Virginia (VA) dayflower, Commelina virginica)
From the text: as §1, §2

[7] = system: itchgrass (Rottboellia cochinchinensis)
From the text: as §1, §2

[8] = system: black mustard (Brassica nigra)
From the text: as §1, §2

[9] = system: Italian ryegrass (Lolium multiflorum)
From the text: as §1, §2

[10] = system: field bindweed (Convolvulus arvensis)
From the text: as §1, §2

[11] = Postemergence, 16 g ai/ha, scale 0 to 100
[12] = Postemergence, 31 g ai/ha, scale 0 to 100
[13] = Postemergence, 125 g ai/ha, scale 0 to 100 (0 no effect, 100 complete control)
[14] = Postemergence, 62 g ai/ha, scale 0 to 100 (0 no effect, 100 complete control)
[15] = Preemergence, 16 g ai/ha, scale 0 to 100, 0 no effect, 100 complete control
[16] = Preemergence, 31 g ai/ha, scale 0 to 100 (0 no effect, 100 complete control)
[17] = Preemergence, 62 g ai/ha, scale 0 to 100
[18] = Preemergence, 125 g ai/ha, scale 0 to 100

Cc1ccc(F)c(-n2c(-c3ccccc3)ncc(C(=O)C3=C(O)CCCC3=O)c2=O)c1 [Compound 51]
15: Plant response rating, Nutsedge, Purple [5, 14]
100: Plant response rating, Purslane [1, 18] | Plant response rating, Groundsel ([2]; 125 g ai/ha, scale 0 to 100 (0 no effect, 100 complete control)) | Plant response rating, Groundsel ([2]; 62 g ai/ha, scale 0 to 100 (0 no effect, 100 complete control)) | Plant response rating, Sowthistle [3, 13] | Plant response rating, Sowthistle [3, 14] | Plant response rating, Sowthistle [3, 18] | Plant response rating, Black Mustard [8, 13] | Plant response rating, Black Mustard [8, 18]
35: Plant response rating, Purslane [1, 13] | Plant response rating, Purslane [1, 14] | Plant response rating, Prickly Sida [4, 18]
75: Plant response rating, Sowthistle [3, 16] | Plant response rating, Prickly Sida [4, 13] | Plant response rating, Black Mustard [8, 17]
95: Plant response rating, Sowthistle [3, 11] | Plant response rating, Black Mustard ([8]; Postemergence, 31 g ai/ha, scale 0 to 100 (0 no effect, 100 complete control))
20: Plant response rating, Purslane [1, 12] | Plant response rating, Prickly Sida [4, 16] | Plant response rating, Prickly Sida [4, 17] | Plant response rating, Nutsedge, Purple [5, 13] | Plant response rating, Dayflower, VA [6, 13] | Plant response rating, Itchgrass [7, 12] | Plant response rating, Field Bindweed [10, 14]
50: Plant response rating, Purslane [1, 16] | Plant response rating, Prickly Sida [4, 11] | Plant response rating, Prickly Sida [4, 12] | Plant response rating, Black Mustard [8, 16]
40: Plant response rating, Sowthistle [3, 15] | Plant response rating, Itchgrass [7, 14]
85: Plant response rating, Groundsel ([2]; 16 g ai/ha, scale 0 to 100)
10: Plant response rating, Purslane [1, 11] | Plant response rating, Dayflower, VA [6, 11] | Plant response rating, Dayflower, VA [6, 12] | Plant response rating, Dayflower, VA [6, 14]
98: Plant response rating, Groundsel ([2]; 31 g ai/ha, scale 0 to 100) | Plant response rating, Sowthistle [3, 12]
5: Plant response rating, Nutsedge, Purple [5, 17] | Plant response rating, Nutsedge, Purple [5, 18] | Plant response rating, Field Bindweed [10, 11] | Plant response rating, Field Bindweed [10, 12]
70: Plant response rating, Black Mustard [8, 11]
0: Plant response rating, Purslane [1, 15] | Plant response rating, Prickly Sida [4, 15] | Plant response rating, Nutsedge, Purple [5, 11] | Plant response rating, Nutsedge, Purple [5, 12] | Plant response rating, Nutsedge, Purple [5, 15] | Plant response rating, Nutsedge, Purple [5, 16] | Plant response rating, Dayflower, VA [6, 15] | Plant response rating, Dayflower, VA [6, 16] | Plant response rating, Dayflower, VA [6, 18] | Plant response rating, Itchgrass [7, 11] | Plant response rating, Itchgrass [7, 15] | Plant response rating, Itchgrass [7, 16] | Plant response rating, Itchgrass [7, 17] | Plant response rating, Itchgrass [7, 18] | Plant response rating, Black Mustard [8, 15] | Plant response rating, Ryegrass, Italian [9, 11] | Plant response rating, Ryegrass, Italian [9, 12] | Plant response rating, Ryegrass, Italian [9, 13] | Plant response rating, Ryegrass, Italian [9, 14] | Plant response rating, Ryegrass, Italian [9, 15] | Plant response rating, Ryegrass, Italian [9, 16] | Plant response rating, Ryegrass, Italian [9, 18] | Plant response rating, Field Bindweed [10, 15] | Plant response rating, Field Bindweed [10, 16] | Plant response rating, Field Bindweed [10, 17] | Plant response rating, Field Bindweed [10, 18]
60: Plant response rating, Field Bindweed [10, 13]
80: Plant response rating, Itchgrass [7, 13]
65: Plant response rating, Purslane [1, 17] | Plant response rating, Prickly Sida [4, 14]
